In ChEMBL document CHEMBL4334497, “Synthesis and Pharmacological Characterization of 2-(2,6-Dichlorophenyl)-1-((1S,3R)-5-(3-hydroxy-3-methylbutyl)-3-(hydroxymethyl)-1-methyl-3,4-dihydroisoquinolin-2(1H)-yl)ethan-1-one (LY3154207), a Potent, Subtype Selective, and Orally Available Positive Allosteric Modulator of the Human Dopamine …” (J Med Chem, 2019):
In brackets after ≈: the same amount, converted by molar mass. Activity calls are given as the source filed them. The calls are words filed in the database; no cut-off is given here.

Experiments:
[1] = Unbound brain-to-plasma concentration ratio in mouse at 3 to 240 mg/kg, po by LC-MS/MS.analysis; format: ADME, organism-based; details: read-out: K(p,uu,brain)
[2] = Unbound fraction in mouse plasma by equilibrium dialysis assay; format: ADME, cell-free
[3] = Oral bioavailability in CD1 mouse 10 mg/kg measured up to 24 hrs by LC-MS/MS.analysis; format: ADME, organism-based; details: in vivo
[4] = Clearance in CD1 mouse 1 mg/kg, iv measured up to 24 hrs by LC-MS/MS.analysis; format: ADME, organism-based; details: in vivo
[5] = Volume of distribution at steady state in CD1 mouse 1 mg/kg, iv or 10 mg/kg, po measured up to 24 hrs by LC-MS/MS.analysis; format: ADME, organism-based; details: in vivo, read-out: Vdss
[6] = Unbound intrinsic clearance in human liver microsomes; format: ADME, Microsome
D(1A) dopamine receptor [7] = target: T1, D(1A) dopamine receptor (Homo sapiens, UniProt P21728); assay: Positive allosteric modulator activity at human D1 receptor stably expressed in HEK293 cells assessed as potentiation of EC20 dopamine-induced cAMP accumulation incubated for 60 mins by HTRF assay relative to dopamine alone; format: functional, cell-based
[8] = Unbound intrinsic clearance in mouse liver microsomes; format: ADME, Microsome
[9] = Unbound fraction in mouse liver microsomes by equilibrium dialysis assay; format: ADME, Microsome
D(1A) dopamine receptor [10] = target: T1, D(1A) dopamine receptor; assay: Positive allosteric modulator activity at human D1 receptor stably expressed in HEK293 cells assessed as potentiation of EC20 dopamine-induced cAMP accumulation incubated for 60 mins by HTRF assay; format: functional, cell-based
[11] = AUC in CD1 mouse 10 mg/kg, po measured up to 24 hrs by LC-MS/MS.analysis; format: ADME, organism-based; parameters: dose 10 mg/kg, time < 24 hr, route oral; details: in vivo
[12] = Tmax in CD1 mouse 10 mg/kg, po measured up to 24 hrs by LC-MS/MS.analysis; format: ADME, organism-based; details: in vivo
[13] = AUC in CD1 mouse 1 mg/kg, iv measured up to 24 hrs by LC-MS/MS.analysis; format: ADME, organism-based; parameters: dose 1 mg/kg, time < 24 hr, route intravenous; details: in vivo
[14] = Solubility of the compound in pH 6.0 buffer by high throughput solubility assay; format: physicochemical
[15] = Permeability from apical to basolateral side in MDCK2 cells stably expressing human wild-type ABCB1 at 5 uM incubated for 60 mins; format: ADME, cell-based, Canis lupus familiaris; details: dog, mdck-ii, 1 h
[16] = Unbound fraction in mouse brain by equilibrium dialysis assay; format: ADME, tissue-based
[17] = Half life in CD1 mouse 1 mg/kg, iv measured up to 24 hrs by LC-MS/MS.analysis; format: ADME, organism-based; details: in vivo
[18] = Cmax in CD1 mouse 10 mg/kg, po measured up to 24 hrs by LC-MS/MS.analysis; format: ADME, organism-based; parameters: dose 10 mg/kg, route oral; details: in vivo
Mus musculus [19] = assay: Induction of locomotor activity in human D1 receptor knock-in habituated transgenic mouse assessed as increase in total ambulations at 30 to 60 mg/kg, sc measured for 60 mins after dosing by photocell beam monitoring based method; format: functional, organism-based
Mus musculus [20] = assay: Induction of locomotor activity in human D1 receptor knock-in habituated transgenic mouse assessed as increase in total ambulations up to 10 mg/kg, sc measured for 60 mins after dosing by photocell beam monitoring based method; format: functional, organism-based

T1 sequence (P21728 whole entry): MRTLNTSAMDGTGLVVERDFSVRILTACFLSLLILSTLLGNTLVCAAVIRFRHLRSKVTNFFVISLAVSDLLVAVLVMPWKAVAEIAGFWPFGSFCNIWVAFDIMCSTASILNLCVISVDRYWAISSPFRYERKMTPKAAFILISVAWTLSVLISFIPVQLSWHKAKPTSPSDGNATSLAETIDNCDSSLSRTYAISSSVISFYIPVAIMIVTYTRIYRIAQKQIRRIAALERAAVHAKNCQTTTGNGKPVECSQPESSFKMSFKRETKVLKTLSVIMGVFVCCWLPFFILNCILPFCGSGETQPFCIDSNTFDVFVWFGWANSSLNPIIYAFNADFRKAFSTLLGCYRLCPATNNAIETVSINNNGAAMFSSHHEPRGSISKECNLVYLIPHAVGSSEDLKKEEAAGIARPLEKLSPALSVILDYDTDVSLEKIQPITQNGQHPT

| Kp uu [1] | fraction unbound [2] | bioavailability [3] | clearance [4] | Vd [5] | CL free [6] | Emax (D(1A) dopamine receptor [7]) | CL free [8] | fraction unbound [9] | EC50 (D(1A) dopamine receptor [10]) | AUC at 24 h [11] | Tmax [12] | AUC at 24 h [13] | solubility [14] | permeability [15] | fraction unbound [16] | half-life [17] | Cmax [18] | SMILES | Activity (Mus musculus [19]) | Activity (Mus musculus [20]) |
| --- | --- | --- | --- | --- | --- | --- | --- | --- | --- | --- | --- | --- | --- | --- | --- | --- | --- | --- | --- | --- |
| 1.1 | 0.051 | 9% | 96.9 mL/min/kg | 1.65 L/kg | 43 mL/min/kg | 93% | 965 mL/min/kg | 0.711 | 13.9 nM | 0.367 µM·h | 30 min | 0.406 µM·h | 116 µg/mL (≈ 275 µM) | 14% | 0.055 | 13.8 min | 219 nM | C[C@H]1c2cccc(C(C)(C)O)c2C[C@H](CO)N1C(=O)Cc1c(Cl)cccc1Cl | – | – |
| – | – | – | – | – | – | – | – | – | – | – | – | – | – | – | – | – | – | C=CCN1CCc2c(cc(O)c(O)c2Cl)C(c2ccccc2)C1 (stereo not given) | inactive | Active |
